How the values were obtained:
Test in all cases: KINOMEscan
Assay type in all cases: binding
ERK4 = target: T1, ERK4 (Homo sapiens, UniProt P31152); details: 35 at 1 µM; read-out: % inhibition
T1 construct: purchased Eurofins DiscoverX (KINOMEscan)
Experimental: (§1) KinomeScan Assay on 35 was performed as previously described at EuroFins DiscoverX (Fremont, CA, USA).

PRKCH = target: T2, PRKCH (Homo sapiens, UniProt P24723); details: 35 at 1 µM; read-out: % inhibition
T2 construct: purchased Eurofins DiscoverX (KINOMEscan)
Experimental: as §1

ROCK2 = target: T3, ROCK2 (Homo sapiens, UniProt O75116); details: 35 at 1 µM; read-out: % inhibition
T3 construct: purchased Eurofins DiscoverX (KINOMEscan)
Experimental: as §1

AXL = target: T4, AXL (Homo sapiens, UniProt P30530); details: 35 at 1 µM; read-out: % inhibition
T4 construct: purchased Eurofins DiscoverX (KINOMEscan)
Experimental: as §1

MEK5 = target: T5, MEK5 (Homo sapiens, UniProt Q13163)
T5 construct: purchased Eurofins DiscoverX (KINOMEscan)
T5 sequence (Q13163 whole entry): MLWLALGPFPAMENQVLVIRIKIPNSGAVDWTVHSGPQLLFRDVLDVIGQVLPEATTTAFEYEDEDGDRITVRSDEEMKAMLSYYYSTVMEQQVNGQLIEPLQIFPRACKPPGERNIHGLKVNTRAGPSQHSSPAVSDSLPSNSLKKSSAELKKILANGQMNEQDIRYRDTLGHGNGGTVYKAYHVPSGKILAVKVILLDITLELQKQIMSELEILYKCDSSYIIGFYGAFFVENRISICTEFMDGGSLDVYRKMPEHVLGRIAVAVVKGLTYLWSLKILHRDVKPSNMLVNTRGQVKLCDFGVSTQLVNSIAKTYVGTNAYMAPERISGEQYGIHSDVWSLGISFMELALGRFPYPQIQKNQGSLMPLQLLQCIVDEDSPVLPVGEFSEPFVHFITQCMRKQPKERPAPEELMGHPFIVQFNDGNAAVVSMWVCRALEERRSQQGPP
Experimental: as §1

CDK4 = target: T6, CDK4 (Homo sapiens, UniProt P11802); details: 35 at 1 µM; read-out: % inhibition
T6 construct: purchased Eurofins DiscoverX (KINOMEscan)
T6 sequence (P11802 whole entry): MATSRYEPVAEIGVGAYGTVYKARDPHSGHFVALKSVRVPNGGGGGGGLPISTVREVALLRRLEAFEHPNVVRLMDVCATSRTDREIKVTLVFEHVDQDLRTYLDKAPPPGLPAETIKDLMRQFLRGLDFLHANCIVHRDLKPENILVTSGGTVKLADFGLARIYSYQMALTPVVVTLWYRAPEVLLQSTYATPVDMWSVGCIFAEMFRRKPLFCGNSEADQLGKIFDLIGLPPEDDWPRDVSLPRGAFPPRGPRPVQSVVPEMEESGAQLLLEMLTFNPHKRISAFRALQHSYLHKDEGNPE
Experimental: as §1

INSRR = target: T7, INSRR (Homo sapiens, UniProt P14616); details: 35 at 1 µM; read-out: % inhibition
T7 construct: purchased Eurofins DiscoverX (KINOMEscan)
Experimental: as §1

[1] = target: T8, ABL1(H396P)-nonphosphorylated (Homo sapiens, UniProt P00519, H396P); details: 35 at 1 µM; read-out: % inhibition
T8 construct: purchased Eurofins DiscoverX (KINOMEscan)
Experimental: as §1

ACVRL1 = target: T9, ACVRL1 (Homo sapiens, UniProt P37023); details: 35 at 1 µM; read-out: % inhibition
T9 construct: purchased Eurofins DiscoverX (KINOMEscan)
Experimental: as §1

RIOK1 = target: T10, RIOK1 (Homo sapiens, UniProt Q9BRS2); details: 35 at 1 µM; read-out: % inhibition
T10 construct: purchased Eurofins DiscoverX (KINOMEscan)
Experimental: as §1

ULK1 = target: T11, ULK1 (Homo sapiens, UniProt O75385); details: 35 at 1 µM; read-out: % inhibition
T11 construct: purchased Eurofins DiscoverX (KINOMEscan)
Experimental: as §1

LOK = target: T12, LOK (Homo sapiens, UniProt O94804); details: 35 at 1 µM; read-out: % inhibition
T12 construct: purchased Eurofins DiscoverX (KINOMEscan)
Experimental: as §1

[2] = target: T13, ABL1(F317I)-nonphosphorylated (Homo sapiens, UniProt P00519, F317I); details: 35 at 1 µM; read-out: % inhibition
T13 construct: purchased Eurofins DiscoverX (KINOMEscan)
Experimental: as §1

PRKCQ = target: T14, PRKCQ (Homo sapiens, UniProt Q04759); details: 35 at 1 µM; read-out: % inhibition
T14 construct: purchased Eurofins DiscoverX (KINOMEscan)
Experimental: as §1

PAK2 = target: T15, PAK2 (Homo sapiens, UniProt Q13177); details: 35 at 1 µM; read-out: % inhibition
T15 construct: purchased Eurofins DiscoverX (KINOMEscan)
T15 sequence (Q13177 whole entry): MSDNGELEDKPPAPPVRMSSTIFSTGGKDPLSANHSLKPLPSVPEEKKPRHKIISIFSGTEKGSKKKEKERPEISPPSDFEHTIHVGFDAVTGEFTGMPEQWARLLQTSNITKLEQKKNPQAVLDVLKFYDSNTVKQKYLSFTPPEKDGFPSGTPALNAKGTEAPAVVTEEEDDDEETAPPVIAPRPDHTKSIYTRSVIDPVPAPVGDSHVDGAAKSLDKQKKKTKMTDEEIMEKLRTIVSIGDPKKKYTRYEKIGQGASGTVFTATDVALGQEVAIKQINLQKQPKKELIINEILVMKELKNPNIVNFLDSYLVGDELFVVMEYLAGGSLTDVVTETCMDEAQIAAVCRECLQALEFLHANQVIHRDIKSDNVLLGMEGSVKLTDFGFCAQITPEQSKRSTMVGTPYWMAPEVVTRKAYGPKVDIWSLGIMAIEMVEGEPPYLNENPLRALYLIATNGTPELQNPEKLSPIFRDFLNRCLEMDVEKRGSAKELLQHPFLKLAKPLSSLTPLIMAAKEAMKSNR
Experimental: as §1

MEK1 = target: T16, MEK1 (Homo sapiens, UniProt Q02750); details: 35 at 1 µM; read-out: % inhibition
T16 construct: purchased Eurofins DiscoverX (KINOMEscan)
Experimental: as §1

MAP4K5 = target: T17, MAP4K5 (Homo sapiens, UniProt Q9Y4K4); details: 35 at 1 µM; read-out: % inhibition
T17 construct: purchased Eurofins DiscoverX (KINOMEscan)
Experimental: as §1

[3] = target: T18, RSK1(Kin.Dom.1-N-terminal) (Homo sapiens, UniProt Q15418); details: 35 at 1 µM; read-out: % inhibition
T18 construct: RSK1(Kin.Dom.1-N-terminal); purchased Eurofins DiscoverX (KINOMEscan)
T18 sequence (Q15418 1-391 limits assumed): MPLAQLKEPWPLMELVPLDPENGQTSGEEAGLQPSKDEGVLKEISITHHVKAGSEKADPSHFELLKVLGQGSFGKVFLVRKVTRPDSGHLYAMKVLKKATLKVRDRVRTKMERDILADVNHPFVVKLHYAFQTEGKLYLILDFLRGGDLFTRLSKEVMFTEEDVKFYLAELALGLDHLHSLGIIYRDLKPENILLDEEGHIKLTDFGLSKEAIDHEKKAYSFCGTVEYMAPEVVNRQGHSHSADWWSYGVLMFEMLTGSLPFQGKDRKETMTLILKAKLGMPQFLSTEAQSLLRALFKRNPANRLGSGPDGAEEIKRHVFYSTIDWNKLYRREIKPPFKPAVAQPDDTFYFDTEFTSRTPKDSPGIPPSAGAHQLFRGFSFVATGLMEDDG
Experimental: as §1

WNK2 = target: T19, WNK2 (Homo sapiens, UniProt Q9Y3S1); details: 35 at 1 µM; read-out: % inhibition
T19 construct: purchased EuroFins DiscoverX (Fremont, CA, USA)
Experimental: as §1

PIKFYVE = target: T20, PIKFYVE (Homo sapiens, UniProt Q9Y2I7); details: 35 at 1 µM; read-out: % inhibition
T20 construct: purchased Eurofins DiscoverX (KINOMEscan)
Experimental: as §1

PRKG2 = target: T21, PRKG2 (Homo sapiens, UniProt Q13237); details: 35 at 1 µM; read-out: % inhibition
T21 construct: purchased Eurofins DiscoverX (KINOMEscan)
T21 sequence (Q13237 whole entry): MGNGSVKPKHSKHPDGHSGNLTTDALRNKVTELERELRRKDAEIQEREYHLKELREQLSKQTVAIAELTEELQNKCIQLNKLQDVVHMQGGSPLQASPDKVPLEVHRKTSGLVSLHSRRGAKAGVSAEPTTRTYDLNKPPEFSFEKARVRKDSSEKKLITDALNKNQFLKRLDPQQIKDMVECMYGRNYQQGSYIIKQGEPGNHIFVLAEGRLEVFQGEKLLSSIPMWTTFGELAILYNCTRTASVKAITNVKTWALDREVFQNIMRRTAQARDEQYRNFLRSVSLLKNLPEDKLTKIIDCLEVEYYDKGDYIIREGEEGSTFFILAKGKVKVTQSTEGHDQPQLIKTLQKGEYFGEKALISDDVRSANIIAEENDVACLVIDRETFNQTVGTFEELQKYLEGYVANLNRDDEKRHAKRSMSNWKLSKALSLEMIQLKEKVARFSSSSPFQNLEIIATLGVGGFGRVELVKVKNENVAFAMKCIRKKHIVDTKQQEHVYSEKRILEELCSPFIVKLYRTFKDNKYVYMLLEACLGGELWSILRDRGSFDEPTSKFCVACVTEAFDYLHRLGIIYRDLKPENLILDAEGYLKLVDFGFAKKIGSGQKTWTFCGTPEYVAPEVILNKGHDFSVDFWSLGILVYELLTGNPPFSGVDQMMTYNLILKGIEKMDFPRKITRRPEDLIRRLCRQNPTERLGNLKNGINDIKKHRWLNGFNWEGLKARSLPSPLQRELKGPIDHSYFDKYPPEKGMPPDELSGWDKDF
Experimental: as §1

[4] = target: T22, ABL1(F317L)-phosphorylated (Homo sapiens, UniProt P00519, F317L); details: 35 at 1 µM; read-out: % inhibition
T22 construct: purchased Eurofins DiscoverX (KINOMEscan)
Experimental: as §1

MARK1 = target: T23, MARK1 (Homo sapiens, UniProt Q9P0L2); details: 35 at 1 µM; read-out: % inhibition
T23 construct: purchased Eurofins DiscoverX (KINOMEscan)
Experimental: as §1

NEK9 = target: T24, NEK9 (Homo sapiens, UniProt Q8TD19); details: 35 at 1 µM; read-out: % inhibition
T24 construct: purchased Eurofins DiscoverX (KINOMEscan)
Experimental: as §1

CAMK4 = target: T25, CAMK4 (Homo sapiens, UniProt Q16566); details: 35 at 1 µM; read-out: % inhibition
T25 construct: purchased Eurofins DiscoverX (KINOMEscan)
T25 sequence (Q16566 whole entry): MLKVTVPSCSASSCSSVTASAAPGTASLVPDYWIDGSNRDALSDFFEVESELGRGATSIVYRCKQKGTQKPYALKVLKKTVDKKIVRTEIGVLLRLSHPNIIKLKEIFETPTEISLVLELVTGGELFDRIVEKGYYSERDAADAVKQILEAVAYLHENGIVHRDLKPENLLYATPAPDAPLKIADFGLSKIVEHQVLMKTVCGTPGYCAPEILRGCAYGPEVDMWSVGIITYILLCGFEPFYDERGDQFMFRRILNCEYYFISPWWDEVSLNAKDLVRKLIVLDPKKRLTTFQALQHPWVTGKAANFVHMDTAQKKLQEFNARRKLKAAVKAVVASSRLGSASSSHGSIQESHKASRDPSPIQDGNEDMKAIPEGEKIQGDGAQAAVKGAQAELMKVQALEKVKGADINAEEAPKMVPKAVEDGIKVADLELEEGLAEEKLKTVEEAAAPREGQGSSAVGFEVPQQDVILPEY
Experimental: as §1

YSK4 = target: T26, YSK4 (Homo sapiens, UniProt Q56UN5); details: 35 at 1 µM; read-out: % inhibition
T26 construct: purchased Eurofins DiscoverX (KINOMEscan)
Experimental: as §1

PRKCI = target: T27, PRKCI (Homo sapiens, UniProt P41743); details: 35 at 1 µM; read-out: % inhibition
T27 construct: purchased Eurofins DiscoverX (KINOMEscan)
Experimental: as §1

PIK3CA(H1047L) = target: T28, PIK3CA(H1047L) (Homo sapiens, UniProt P42336, H1047L); details: 35 at 1 µM; read-out: % inhibition
T28 construct: purchased Eurofins DiscoverX (KINOMEscan)
Experimental: as §1

PIP5K1A = target: T29, PIP5K1A (Homo sapiens, UniProt Q99755); details: 35 at 1 µM; read-out: % inhibition
T29 construct: purchased Eurofins DiscoverX (KINOMEscan)
Experimental: as §1

CDC2L2 = target: T30, CDC2L2 (Homo sapiens, UniProt Q9UQ88); details: 35 at 1 µM; read-out: % inhibition
T30 construct: purchased Eurofins DiscoverX (KINOMEscan)
T30 sequence (Q9UQ88 whole entry): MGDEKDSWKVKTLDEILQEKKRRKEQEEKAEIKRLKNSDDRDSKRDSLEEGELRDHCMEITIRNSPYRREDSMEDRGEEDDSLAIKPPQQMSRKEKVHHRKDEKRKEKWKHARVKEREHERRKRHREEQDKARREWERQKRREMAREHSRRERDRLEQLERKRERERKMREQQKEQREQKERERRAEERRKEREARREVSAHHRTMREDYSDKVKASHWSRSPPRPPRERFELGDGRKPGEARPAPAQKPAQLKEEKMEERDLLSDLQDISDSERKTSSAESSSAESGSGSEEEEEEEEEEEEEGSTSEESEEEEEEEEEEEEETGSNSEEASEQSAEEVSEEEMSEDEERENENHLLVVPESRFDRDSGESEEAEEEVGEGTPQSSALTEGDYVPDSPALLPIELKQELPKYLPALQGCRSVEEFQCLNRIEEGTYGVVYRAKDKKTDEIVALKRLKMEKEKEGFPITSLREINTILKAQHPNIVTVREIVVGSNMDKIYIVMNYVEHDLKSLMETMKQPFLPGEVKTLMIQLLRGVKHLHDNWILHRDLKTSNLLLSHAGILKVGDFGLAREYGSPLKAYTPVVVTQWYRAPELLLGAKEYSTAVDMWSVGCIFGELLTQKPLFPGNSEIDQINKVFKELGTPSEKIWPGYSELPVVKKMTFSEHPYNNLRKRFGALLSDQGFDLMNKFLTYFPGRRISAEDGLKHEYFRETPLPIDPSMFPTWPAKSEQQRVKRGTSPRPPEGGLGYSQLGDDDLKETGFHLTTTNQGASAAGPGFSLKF
Experimental: as §1

GRK2 = target: T31, GRK2 (Homo sapiens, UniProt P25098); details: 35 at 1 µM; read-out: % inhibition
T31 construct: purchased Eurofins DiscoverX (KINOMEscan)
T31 sequence (P25098 whole entry): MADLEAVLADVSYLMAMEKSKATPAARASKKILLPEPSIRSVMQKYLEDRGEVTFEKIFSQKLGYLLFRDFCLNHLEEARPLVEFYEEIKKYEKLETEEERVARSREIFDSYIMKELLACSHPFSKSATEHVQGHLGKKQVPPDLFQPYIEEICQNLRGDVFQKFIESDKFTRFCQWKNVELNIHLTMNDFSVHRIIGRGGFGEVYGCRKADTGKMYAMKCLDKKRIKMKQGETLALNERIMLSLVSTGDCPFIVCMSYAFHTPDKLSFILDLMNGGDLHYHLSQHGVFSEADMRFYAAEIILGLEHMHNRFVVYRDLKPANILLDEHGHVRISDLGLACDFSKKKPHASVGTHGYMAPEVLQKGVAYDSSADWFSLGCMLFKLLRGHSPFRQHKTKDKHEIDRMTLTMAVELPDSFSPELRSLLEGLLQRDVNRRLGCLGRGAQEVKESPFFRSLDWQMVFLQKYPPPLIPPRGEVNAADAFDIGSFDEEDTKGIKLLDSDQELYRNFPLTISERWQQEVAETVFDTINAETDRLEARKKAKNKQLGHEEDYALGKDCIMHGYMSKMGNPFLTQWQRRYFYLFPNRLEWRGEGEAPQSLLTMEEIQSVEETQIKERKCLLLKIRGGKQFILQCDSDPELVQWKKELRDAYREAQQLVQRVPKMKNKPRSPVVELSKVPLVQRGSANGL
Experimental: as §1

ROCK1 = target: T32, ROCK1 (Homo sapiens, UniProt Q13464); details: 35 at 1 µM; read-out: % inhibition
T32 construct: purchased Eurofins DiscoverX (KINOMEscan)
Experimental: as §1

AURKB = target: T33, AURKB (Homo sapiens, UniProt Q96GD4); details: 35 at 1 µM; read-out: % inhibition
T33 construct: purchased Eurofins DiscoverX (KINOMEscan)
Experimental: as §1

ARK5 = target: T34, ARK5 (Homo sapiens, UniProt O60285); details: 35 at 1 µM; read-out: % inhibition
T34 construct: purchased Eurofins DiscoverX (KINOMEscan)
Experimental: as §1

SYK = target: T35, SYK (Homo sapiens, UniProt P43405); details: 35 at 1 µM; read-out: % inhibition
T35 construct: purchased Eurofins DiscoverX (KINOMEscan)
Experimental: as §1

IRAK3 = target: T36, IRAK3 (Homo sapiens, UniProt Q9Y616); details: 35 at 1 µM; read-out: % inhibition
T36 construct: purchased Eurofins DiscoverX (KINOMEscan)
Experimental: as §1

HUNK = target: T37, HUNK (Homo sapiens, UniProt P57058); details: 35 at 1 µM; read-out: % inhibition
T37 construct: purchased Eurofins DiscoverX (KINOMEscan)
Experimental: as §1

[5] = target: T38, TYK2(JH2domain-pseudokinase) (Homo sapiens, UniProt P29597); details: 35 at 1 µM; read-out: % inhibition
T38 construct: TYK2(JH2domain-pseudokinase); purchased Eurofins DiscoverX (KINOMEscan)
Experimental: as §1

YSK1 = target: T39, YSK1 (Homo sapiens, UniProt O00506); details: 35 at 1 µM; read-out: % inhibition
T39 construct: purchased EuroFins DiscoverX (Fremont, CA, USA)
Experimental: as §1

BRAF = target: T40, BRAF (Homo sapiens, UniProt P15056); details: 35 at 1 µM; read-out: % inhibition
T40 construct: purchased Eurofins DiscoverX (KINOMEscan)
Experimental: as §1

EPHA1 = target: T41, EPHA1 (Homo sapiens, UniProt P21709); details: 35 at 1 µM; read-out: % inhibition
T41 construct: purchased Eurofins DiscoverX (KINOMEscan)
Experimental: as §1

CDKL2 = target: T42, CDKL2 (Homo sapiens, UniProt Q92772); details: 35 at 1 µM; read-out: % inhibition
T42 construct: purchased Eurofins DiscoverX (KINOMEscan)
Experimental: as §1

T1 sequence (P31152 whole entry): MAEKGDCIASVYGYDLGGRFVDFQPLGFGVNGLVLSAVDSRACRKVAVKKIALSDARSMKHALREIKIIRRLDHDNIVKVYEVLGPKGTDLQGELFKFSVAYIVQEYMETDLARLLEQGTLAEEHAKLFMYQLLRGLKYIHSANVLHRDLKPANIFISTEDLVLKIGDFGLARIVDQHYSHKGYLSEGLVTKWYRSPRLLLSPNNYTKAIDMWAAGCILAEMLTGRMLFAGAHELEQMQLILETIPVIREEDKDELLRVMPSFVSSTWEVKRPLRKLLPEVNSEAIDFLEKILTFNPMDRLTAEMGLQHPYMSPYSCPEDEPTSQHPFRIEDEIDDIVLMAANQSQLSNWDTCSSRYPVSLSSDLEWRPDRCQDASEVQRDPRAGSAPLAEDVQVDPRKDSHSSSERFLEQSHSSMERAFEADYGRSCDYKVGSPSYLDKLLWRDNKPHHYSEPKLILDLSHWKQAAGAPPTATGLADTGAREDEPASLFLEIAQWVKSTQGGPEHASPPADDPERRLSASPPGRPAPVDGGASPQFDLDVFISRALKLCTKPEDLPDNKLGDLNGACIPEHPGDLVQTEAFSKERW

## Brc1ccc2nccc(Nc3ccc4cn[nH]c4c3)c2c1 [Compound 35, 6-Bromo-N-(1H-indazol-6-yl)quinolin-4-amine]
ERK4
  activity at 1 µM: 97%
PRKCH
  activity at 1 µM: 100%
ROCK2
  activity at 1 µM: 91%
AXL
  activity at 1 µM: 100%
MEK5; 35 at 1 µM, read-out: % inhibition
  activity at 1 µM: 11%
MEK5; KinomeScan, screened at 1 μM, read-out: kinases inhibited at 1 μM: MEK5
  inhibition at 1 µM: 89%
CDK4
  activity at 1 µM: 78%
INSRR
  activity at 1 µM: 100%
[1]
  activity at 1 µM: 86%
ACVRL1
  activity at 1 µM: 100%
RIOK1
  activity at 1 µM: 100%
ULK1
  activity at 1 µM: 91%
LOK
  activity at 1 µM: 100%
[2]
  activity at 1 µM: 77%
PRKCQ
  activity at 1 µM: 88%
PAK2
  activity at 1 µM: 85%
MEK1
  activity at 1 µM: 71%
MAP4K5
  activity at 1 µM: 100%
[3]
  activity at 1 µM: 100%
WNK2
  activity at 1 µM: 100%
PIKFYVE
  activity at 1 µM: 100%
PRKG2
  activity at 1 µM: 100%
[4]
  activity at 1 µM: 85%
MARK1
  activity at 1 µM: 100%
NEK9
  activity at 1 µM: 100%
CAMK4
  activity at 1 µM: 100%
YSK4
  activity at 1 µM: 98%
PRKCI
  activity at 1 µM: 60%
PIK3CA(H1047L)
  activity at 1 µM: 87%
PIP5K1A
  activity at 1 µM: 100%
CDC2L2
  activity at 1 µM: 70%
GRK2
  activity at 1 µM: 100%
ROCK1
  activity at 1 µM: 71%
AURKB
  activity at 1 µM: 90%
ARK5
  activity at 1 µM: 100%
SYK
  activity at 1 µM: 89%
IRAK3
  activity at 1 µM: 100%
HUNK
  activity at 1 µM: 100%
[5]
  activity at 1 µM: 100%
YSK1
  activity at 1 µM: 100%
BRAF
  activity at 1 µM: 92%
EPHA1
  activity at 1 µM: 100%
CDKL2
  activity at 1 µM: 100%

— PMC6891286, “Towards the Development of an In vivo Chemical Probe for Cyclin G Associated Kinase (GAK)” (Molecules, 2019)
